Where two headings read alike, the source gives them in different places.
Assays:
SF3b complexes = target: T1, SF3b complexes (Homo sapiens, UniProt O75533+Q7RTV0); assay: Scintillation proximity assay (SPA) with [3H]-labelled pladienolide probe; assay type: binding; conditions: SF3B1 (WT); geometric mean; read-out: SPA-ATS GMean IC50 (nM) SF3B1 (WT)
T1 construct: endogenous in cells; host or cells: Nuclear extracts; A HeLa S3 extract preparation is described for the in vitro splicing assay
In short: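 SF3b complexes captured from nuclear extracts on anti-SF3B1 antibody SPA beads; test compounds pre-incubated 30 min before 2.5 nM [3H]-pladienolide probe added, then 30 min incubation. Bound probe read by scintillation; values from non-linear regression of concentration–response curves.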

[1] = tested on: Ad2 variant pre-mRNAs spliced in HeLa S3 nuclear extracts; assay: In vitro splicing assay (IVS), RT-qPCR of spliced product; assay type: biochemical; conditions: for IC50: geometric mean
In short: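 Read-out is one-step TaqMan RT-qPCR of spliced Ad2 mRNA with Ftz as reference, normalized to DMSO and fit by non-linear regression. Reactions held HeLa S3 nuclear extract, 2 ng Ad2-derived pre-mRNA and test compound, with 15 min preincubation. Splicing was started with ATP-containing activation buffer and run 90 min at 30 °C.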

[2] = tested on: NCI-H1568 cells (high MCL1); assay: Cell proliferation and viability, CellTiter-Glo, 72 hours; assay type: cell-based; conditions: for GI50: geometric mean
In short: (§1)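 RPMI-1640/10% FBS (Panc: + insulin, FBS 15%); 11-pt half-log dose, ~10 μM-100 pM, 0.1% DMSO; 37° C, 5% CO2; ATP luminescence read; % inhibition vs T0 and vehicle, −100% cidal to 100% uninhibited growth.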

[3] = tested on: Panc 05.04 cells (SF3b K700E mutant); assay: as above; assay type: cell-based; conditions: for GI50: geometric mean
In short: as §1

[4] = Ad2.1 pre-mRNA substrate, read-out: qPCR-IVS-ATS GMean IC50 (nM) Ad2.1
[5] = Ad2.2 pre-mRNA substrate, read-out: qPCR-IVS-ATS GMean IC50 (nM) Ad2.2
[6] = NCI-H1568, read-out: CTGlo-ATS GMean GI50 (nM) 72 h NCIH1568.1, NCIH1568.1 cells, 72 h
[7] = NCIH1568.1 cells, 72 h, −100% cidal, 0% static, 100% maximal growth
[8] = PANC0504.1 cells, 72 h, −100% cidal, 0% static, 100% maximal growth
[9] = Panc 05.04, read-out: CTGlo-ATS GMean GI50 (nM) 72 h PANC0504.1, PANC0504.1 cells, 72 h

Compound	IC50 (SF3b complexes) [nM]	IC50 [1, 4] [nM]	IC50 [1, 5] [nM]	GI50 [2, 6] [nM]	CTGlo-ATS Mean MinResponse % 72 h NCIH1568.1 [2, 7] [%]	CTGlo-ATS Mean MinResponse % 72 h PANC0504.1 [3, 8] [%]	GI50 [3, 9] [nM]	Ratio Ad2.1/2.2 ([1]; ratio of IVS IC50 Ad2.1 to Ad2.2)	CTGlo-ATS Mean MinResponse % 72 h NCIH1568.1 ([2]; 72 h, NCIH1568.1, -100% = cidal, 0% = static, 100% = uninhibited growth) [%]	GI50 ([2]; NCI-H1568, read-out: CTGlo-ATS GMean GI50 (nM) 72 h NCIH1568.1, 72 h, NCIH1568.1) [nM]	CTGlo-ATS Mean MinResponse % 72 h PANC0504.1 ([3]; 72 h, PANC0504.1, -100% = cidal, 0% = static, 100% = uninhibited growth) [%]	GI50 ([3]; Panc 05.04, read-out: CTGlo-ATS GMean GI50 (nM) 72 h PANC0504.1, 72 h, PANC0504.1) [nM]	GI50 ([2]; NCI-H1568, 72 h, read-out: CTGlo-ATS GMean GI50 (nM) 72 h NCIH1568.1, NCIH1568.1 cells, 72 h) [nM]	GI50 ([3]; Panc 05.04, 72 h, read-out: CTGlo-ATS GMean GI50 (nM) 72 h PANC0504.1, PANC0504.1 cells, 72 h) [nM]	GI50 ([2]; read-out: CTGlo-ATS GMean GI50 (nM) 72 h NCIH1568.1, NCIH1568.1 cells, 72 h) [nM]	GI50 ([3]; read-out: CTGlo-ATS GMean GI50 (nM) 72 h PANC0504.1, PANC0504.1 cells, 72 h) [nM]
COc1ccc(S(=O)(=O)N2CCN(c3cc(F)cc(/C=C(\C)[C@H]4OC(=O)C[C@H](O)CC[C@H](C)[C@@H](OC(=O)N5CCN(C)CC5)/C=C/[C@@H]4C)c3)CC2)cc1 [Compound 110]	42.1	142	63.2	40.9	−93.755	−74.667	41.8	–	–	–	–	–	–	–	–	–
C/C(=C\c1cc(N2CCOCC2)ccc1F)[C@H]1OC(=O)C[C@H](O)CC[C@H](C)[C@@H](OC(=O)N2CCN(C)CC2)/C=C/[C@@H]1C [Compound 7]	2.88	1250	25.1	15.1	−56.359	−89.436	8.96	–	–	–	–	–	–	–	–	–
C/C(=C\c1cc(Cl)cc(N2CCOCC2)c1)[C@H]1OC(=O)C[C@H](O)CC[C@H](C)[C@@H](OC(=O)N2CCN(C)CC2)/C=C/[C@@H]1C [Compound 20]	7.76	61.3	40.3	17.6	−68.668	−78.467	14.6	–	–	–	–	–	–	–	–	–
C/C(=C\c1cc(F)cc(N2CCN(CCO)CC2)c1)[C@H]1OC(=O)C[C@H](O)CC[C@H](C)[C@@H](OC(=O)N(C)C2CCN(C)CC2)/C=C/[C@@H]1C [Compound 54]	4.29	12.4	15.8	7.81	−96.584	−94.487	8.66	–	–	–	–	–	–	–	–	–
C/C(=C\c1cc(F)cc(N2CCN(CCO)CC2)c1)[C@H]1OC(=O)C[C@H](O)CC[C@H](C)[C@@H](OC(=O)N2CCOCC2)/C=C/[C@@H]1C [Compound 53]	14.1	1910	30.5	81.8	−59.250	−92.947	81.1	–	–	–	–	–	–	–	–	–
C/C(=C\c1cccc(N2CCN(C)CC2)c1)[C@H]1OC(=O)C[C@H](O)CC[C@H](C)[C@@H](OC(=O)N2CCN(C)CC2)/C=C/[C@@H]1C [Compound 2]	14.7	29.3	24.8	40.6	−70.665	−76.626	30.3	–	–	–	–	–	–	–	–	–
C/C(=C\c1cc(F)cc(N2CCN(C(=O)CN3CCOCC3)CC2)c1)[C@H]1OC(=O)C[C@H](O)CC[C@H](C)[C@@H](OC(=O)N2CCN(C)CC2)/C=C/[C@@H]1C [Compound 119]	11.7	31	21.7	8.84	−81.451	−75.344	8.43	–	–	–	–	–	–	–	–	–
C/C(=C\c1cccc(S(=O)(=O)N2CC[C@@H](O)C2)c1)[C@H]1OC(=O)C[C@H](O)CC[C@H](C)[C@@H](OC(=O)N2CCN(C)CC2)/C=C/[C@@H]1C [Compound 199, [(2S,3S,4E,6R,7S,10R)-10-hydroxy-2-[(E)-1-[3-[(3R)-3-hydroxypyrrolidin-1-yl]sulfonylphenyl]prop-1-en-2-yl]-3,7-dimethyl-12-oxo-1-oxacyclododec-4-en-6-yl] 4-methylpiperazine-1-carboxylate]	8.99	1820	47.2	–	–	–	–	38.638	−52.026	22.9	−95.445	33.8	–	–	–	–
C=CS(=O)(=O)N1CCN(c2cc(F)cc(/C=C(\C)[C@H]3OC(=O)C[C@H](O)CC[C@H](C)[C@@H](OC(=O)N4CCN(C)CC4)/C=C/[C@@H]3C)c2)CC1 [Compound 74]	4.88	34.5	20.8	4.69	−99.528	−64.747	13.1	–	–	–	–	–	–	–	–	–
C/C(=C\c1cc(F)cc(F)c1)[C@H]1OC(=O)C[C@H](O)CC[C@H](C)[C@@H](OC(=O)N2CCN(C)CC2)/C=C/[C@@H]1C [Compound 28]	10.1	8.55	61.5	–	−39.539	−41.132	–	–	–	–	–	–	89.6	42.9	–	–
C/C(=C\c1cc(F)cc(N2CCOCC2)c1)[C@H]1OC(=O)C[C@H](O)CC[C@@](C)(O)C(OC(=O)N2CCN(C)CC2)/C=C/[C@@H]1C (stereo in doubt) [Compound 86, [(2S,3S,4E,6R,7R,10R)-2-[(E)-1-(3-fluoro-5-morpholin-4-ylphenyl)prop-1-en-2-yl]-7,10-dihydroxy-3,7-dimethyl-12-oxo-1-oxacyclododec-4-en-6-yl] 4-methylpiperazine-1-carboxylate]	12.2	929	89.6	–	−39.164	−93.814	–	–	–	–	–	–	–	–	32.5	34.8
C/C(=C\c1cc(F)cc(N2CCNC2=O)c1)[C@H]1OC(=O)C[C@H](O)CC[C@H](C)[C@@H](OC(=O)N2CCN(C)CC2)/C=C/[C@@H]1C [Compound 64]	3.08	116	24.4	6.5	−66.274	−92.050	7.96	–	–	–	–	–	–	–	–	–
C/C(=C\c1cc(F)cc(N2CCN(CC3CC3)C2=O)c1)[C@H]1OC(=O)C[C@H](O)CC[C@H](C)[C@@H](OC(=O)N2CCN(C)CC2)/C=C/[C@@H]1C [Compound 68]	3.39	1870	35.7	12.4	−67.270	−93.925	11.7	–	–	–	–	–	–	–	–	–

Source: patent US11679107B2 (Eisai R&D Management Co., Ltd., priority 2018, dated 2023)
